This assay concerns MCF7. Kind of assay: Antiproliferative activity against human MCF7 cells after 48 hrs by MTT assay. It is filed as functional, cell-based. To be noted: MCF7, 48 h. Background: Formazan colour is commonly taken as a measure of viable cells.

One may read the IC50 as the point on the concentration scale where inhibition reaches its midpoint. Compound `COc1cc2occ(C(=O)c3cccc(NC(C)=O)c3)c2cc1O` displayed an IC50 of 43.1 µM.
To `COc1cc2occ(C(=O)/C=C/c3ccccc3)c2cc1O` belongs 167 µM.
To `COc1cc2occ(C(=O)/C=C/c3cccc(Cl)c3)c2cc1O` belongs 464 µM.
To `O=C(/C=C/c1cccc(Cl)c1)c1coc2cc(F)c(O)cc12` belongs 644 µM; to `COc1ccc(/C=C/C(=O)c2coc3cc(F)c(O)cc23)cc1`, 814 µM; to `COc1cc2occ(C(=O)c3ccc(-c4ccccc4)cc3)c2cc1O`, 1660 µM.
As to `COc1cc2occ(C(=O)/C=C/c3ccc4c(c3)OCO4)c2cc1O`, half-maximal inhibition (IC50) was put at 2110 µM.
Consider `CC/C(=C(\c1ccccc1)c1ccc(OCCN(C)C)cc1)c1ccccc1` [TAMOXIFEN], for which it took 12.3 µM to reach half-maximal inhibition (IC50).

Values taken from ChEMBL document CHEMBL2407004, “3-Acyl-5-hydroxybenzofuran derivatives as potential anti-estrogen breast cancer agents: a combined experimental and theoretical investigation” (Bioorg Med Chem Lett, 2013).
